Source: patent publication US20070248944A1, “Preventive and Remedy for Collagen or Elastin Metabolic Disorder” (YAMAGUCHI UNIVERSITY, priority 2004, published 2007)

Tests used:
[1] = tested on: abdominal aortic aneurysm model (angiotensin II-infused apoE knockout mice); assay: JNK inhibition experiment using an apoE knockout mouse aneurysm model (angiotensin II infusion, prevention); format: in vivo; conditions: by week 5 after initiation of angiotensin II infusion; control group 6.25%
Procedure: An abdominal aortic aneurysm model was generated through continuous administration of angiotensin II to apolipoprotein E (apo E) knockout mice according to Daugherty et al's method (J. Clin. Invest. 105: 1605-1612 (2000)). Specifically, mini-osmotic pump (Alzet) was implanted into 24-week-old apoE knockout male mice and angiotensin II (1 μg/min/kg) was continuously infused. These model mice were affected with hyperlipidemia, hypertension, and marked aortic arteriosclerosis. As a result of 4 weeks of angiotensin II infusion, aneurysm formation was observed mainly in the suprarenal abdominal aorta of these mice. Some of these mice died due to aneurysmal rupture. […] Simultaneously with the initiation of continuous infusion of angiotensin II, daily subcutaneous injection of a JNK inhibitor SP600125 (SP group: 8 mice) or a solution (control group: 16 mice) without JNK inhibitor was initiated. The method employed herein for administration of SP600125 was similar to that in Example 1 above. On week 4, the maximum diameter of each abdominal aorta was measured using ultrasonic diagnostic equipment.

[2] = tested on: abdominal aortic aneurysm model (angiotensin II-infused apoE knockout mice); assay: Aneurysm therapy and regression in apoE knockout mouse aneurysm model; format: in vivo; conditions: 8 weeks of injection; control group 0% ±13%; p<0.05
Procedure: After completion of 4 weeks of angiotensin II infusion, the lumen diameter of each abdominal aortic aneurysm was measured using ultrasonic diagnostic equipment. The mice were evenly divided into 2 groups based on the measured values. Immediately after grouping, daily subcutaneous injection of the […] inhibitor SP600125 (SP group) or a solution alone (control group) was initiated. The method employed herein for administration of SP600125 and the solution was similar to that in Example 1 above. On week 8 after the initiation of injection, the aneurysm diameter of each abdominal aortic aneurysm was measured again using ultrasonic diagnostic equipment.

[3] = tested on: MMP-9; assay: MMP-9 secretion in TNF-α-stimulated THP-1 cells, gelatin zymography; format: cell-based, human; conditions: 0, 1, 2, and 5 μM peptide, TNF-α 50 ng/ml, 48 hours
Procedure: To verify the effects of a JNK inhibitor peptide, an experiment was conducted using MMP-9 as an index, which is thought to be important in the pathogenesis of aneurysms, in a cultured cell system. Cells used herein were macrophage cells (THP-1) mainly expressing MMP-9 in human aneurysms. Specifically, a JNK inhibitor peptide D-JNKI1 (ALEXIS) was administered at various concentrations (0, 1, 2, and 5 μM D-JNKI1) in advance to cultured THP-1 cells. D-TAT (ALEXIS) was used as a control peptide. At 24 hours after peptide administration. the cells were stimulated with TNF-α (50 ng/ml), an inflammatory cytokine. 48 hours later, culture solutions were collected and then the amounts of MMP-9 secreted in the culture solutions were subjected to quantitative analysis by the gelatin zymography method.

[4] = tested on: human abdominal aortic aneurysmal wall tissue; assay: 3H-labeled proline incorporation in human aneurysmal wall culture system; format: cell-based; conditions: 5 mM peptide; TNF-α 100 ng/ml; 48 hours; p<0.05
Procedure: Aneurysmal wall tissue excised at the time of operation of human abdominal aortic aneurysms was chopped and then cultured. The ability of aneurysmal wall to newly synthesize collagen was analyzed using 3H-labeled proline that is abundantly contained in collagen according to the Kidwell et al's method (Methods in Enzymology 147: 407-414 (1987)). Specifically, 3H-labeled proline (3 μCi/ml) was added to media to initiate culture. Immediately after culture initiation, a JNK inhibitor peptide (D-JNKI1, 5 mM, ALEXIS) was administered. D-TAT (5 mM, ALEXIS) was used as a control peptide. At 12 hours after peptide administration, stimulation was performed with TNF-α (R&D Systems, 100 ng/ml) TNF-α is an inflammatory cytokine that is increased in human aortic aneurysms and is known to activate JNK. 48 hours later, proteins in the culture supernatants were collected. 3H-labeled proline that had been incorporated for novel synthesis was measured using a scintillation counter.

[5] = tested on: vascular smooth muscle cells isolated from a rat aorta; assay: Collagen synthesis (3H-labeled proline, collagenase-sensitive fraction) in vascular smooth muscle cell primary culture; format: cell-based; parameters: dose or concentration left out as unconfirmed; conditions: 72 hours; serum-free media; p<0.01
Procedure: An experiment was conducted using a vascular smooth muscle cell primary culture system isolated from a rat aorta. Among newly-synthesized proteins into which 3H-labeled proline had been incorporated, fractions that are specifically degraded by collagen degrading enzymes were subjected to quantitative analysis according to Kidwell et al's method (Methods in Enzymology, 147: 407-414 (1987)). 3H-labeled proline (3 μCi/ml) was added to serum-free media to initiate culture. Immediately after culture initiation, a JNK inhibitor peptide (D-JNK1, 0, 1, 2, and 5 mM, ALEXIS) was administered. At 72 hours after peptide administration, proteins in the culture supernatants were collected. Furthermore, only fractions that had been solubilized by collagen degrading enzymes were collected. 3H-labeled proline that had been incorporated for novel collagen synthesis was measured using a scintillation counter.

[6] = tested on: lysyl oxidase; assay: Lysyl oxidase mRNA expression in serum-deficient vascular smooth muscle cells, real time PCR; format: cell-based, rat; parameters: dose or concentration left out as unconfirmed; conditions: serum-deficiency stress; day 6; p<0.01
Procedure: An experiment was conducted using a vascular smooth muscle cell primary culture system isolated from a rat aorta. Serum deficiency state was created at the initiation of the experiment. JNK of cultured cells was activated by serum-deficiency stress. Immediately after the initiation of the experiment, a JNK inhibitor peptide (D-JNKI1, 5 mM, ALEXIS) was administered. D-TAT (5 mM, ALEXIS) was used as a control peptide. On day 6 after peptide administration, the cells were harvested. Lysyl oxidase expression was subjected to quantitative analysis at the mRNA level using the real time PCR method. Lysyl oxidase (LOX) is an enzyme essential for the maturation of collagen fiber or elastin fiber. Decreased level of LOX indicates lowered ability to synthesize collagen or elastin.

Row | Compound | Cumulative survival rate [1] | Reduction percentage of aneurysm diameter (before vs after injection) [2] | MMP-9 secretion due to TNF-α [3] | 3H-labeled proline incorporation decreased by TNF-α [4] | Ability to synthesize collagen [5] | Lysyl oxidase expression level (mRNA) [6]
1 | Oc1c2ccccc2c2c3c(cccc13)N=N2 [SP600125, Anthra[1-9-cd]pyrazol-6(2H)-one] | 87.5% | 17% ±10% |  |  |  | 
2 | c-Jun N-terminal Kinase Peptide Inhibitor 1, D-stereoisomer [D-JNKI1] |  |  | suppressed MMP-9 secretion due to TNF-α in a concentration-dependent manner | significantly restored | 1.6±0.1 times | inhibited a decrease in lysyl oxidase expression level
